Entries after “also recorded” stand apart in the source; their conditions may differ. One block for each compound: values may come before it.
Columns and labels:
ERG [1] = biological target: T1, ERG (Homo sapiens, UniProt P11308); experiment: Surface Plasmon Resonance (SPR) analysis on amine-coupled ERG; type: binding
T1 sequence (P11308 1-486 isoform P11308-3): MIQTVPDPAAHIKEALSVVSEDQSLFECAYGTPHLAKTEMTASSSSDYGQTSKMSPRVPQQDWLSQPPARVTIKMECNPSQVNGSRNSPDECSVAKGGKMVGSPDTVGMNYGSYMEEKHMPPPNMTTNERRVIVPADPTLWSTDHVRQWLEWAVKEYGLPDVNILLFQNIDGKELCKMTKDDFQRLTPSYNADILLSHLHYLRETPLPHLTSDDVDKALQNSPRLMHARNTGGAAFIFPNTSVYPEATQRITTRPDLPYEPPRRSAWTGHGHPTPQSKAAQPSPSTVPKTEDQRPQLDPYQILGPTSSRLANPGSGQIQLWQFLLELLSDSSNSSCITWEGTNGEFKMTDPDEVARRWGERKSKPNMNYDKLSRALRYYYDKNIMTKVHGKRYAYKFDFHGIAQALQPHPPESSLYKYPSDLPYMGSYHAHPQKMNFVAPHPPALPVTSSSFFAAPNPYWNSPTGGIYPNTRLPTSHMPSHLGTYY
Experimental: Steady-state kinetics of compound 648, YK-4-279 (positive control) and bicalutamide (Bic) (negative control) over amine-coupled ERG surfaces with 50 μM injection (25 μL/min×120 sec association+120 sec dissociation). High-density ERG (6000 RU) and reference surface (no ERG) were amine-coupled to CM5 sensors using BIACORE 3000 instrumentation. YK-4-279 is a known ERG inhibitor. Bic is an antagonist of the androgen receptor.
FIG. 1.5b) Preliminary SPR data to characterize binding affinity of compound 648. Rapid on/off kinetics for compound 648 when titrated over amine-coupled ERG surfaces at 0, 10, 20, 30, 40, and 50 μM (25 μL/min×120 sec association+120 sec dissociation).

ERG [2] = biological target: T1, ERG; experiment: ERG-dependent reporter assay in HEK293 cells; type: cell-based; design: expressed in transfected cells; host or cells: HEK293; conditions: PUx3-Luc reporter, 48 hours, designated doses
Experimental: (§1) HEK293 cells were transiently transfected with empty vector (for the NT) or ERG-expressing plasmid as well as pRL-TK (internal control) and PUx3-Luc reporter. Cells were then exposed to DMSO vehicle or compounds at designated doses for 48 hours. Experiments were done in triplicate.

ETV1 = biological target: T2, ETV1 (Homo sapiens, UniProt P50549); experiment: ETV1-dependent reporter assay in HEK293 cells; type: cell-based; conditions: 48 hours
T2 construct: expressed in transfected cells; host or cells: HEK293
T2 sequence (P50549 1-477): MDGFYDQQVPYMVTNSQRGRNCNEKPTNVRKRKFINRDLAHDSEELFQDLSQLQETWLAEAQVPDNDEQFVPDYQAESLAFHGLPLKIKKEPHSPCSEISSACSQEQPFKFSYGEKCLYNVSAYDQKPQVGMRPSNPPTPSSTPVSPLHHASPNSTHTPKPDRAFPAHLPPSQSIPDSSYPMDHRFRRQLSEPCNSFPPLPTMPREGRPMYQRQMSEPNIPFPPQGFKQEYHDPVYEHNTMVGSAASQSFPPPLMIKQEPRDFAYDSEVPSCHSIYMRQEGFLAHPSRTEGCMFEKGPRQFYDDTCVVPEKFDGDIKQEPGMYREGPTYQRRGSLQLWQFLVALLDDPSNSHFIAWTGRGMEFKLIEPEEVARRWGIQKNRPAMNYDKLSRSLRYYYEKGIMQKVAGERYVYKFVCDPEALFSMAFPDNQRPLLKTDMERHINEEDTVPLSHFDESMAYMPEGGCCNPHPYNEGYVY
Experimental: as §1
Experiments were done as described above in FIG. 1.1a) except that ERG plasmid was replaced by ETV1 plasmid.

[3] = test system: EZH2, c-Myc and ERG expression in VCaP cells; experiment: Expression of EZH2, c-Myc and ERG in VCaP cells; type: cell-based; conditions: 10 μM, 72 hours
Experimental: VCaP cells were exposed to DMSO vehicle control, 648, 698 and 891 at 10 μM for 72 hours in DMEM medium plus 10% FBS or phenol red-free DMEM medium plus 10% charcoal-stripped FBS (CS-FBS).

VCaP cells = experiment: Matrigel invasion assay, VCaP; type: cell-based; conditions: 48 hours
Experimental: (§2) Invasion assay was performed using (8.0 μm pore size) BD Matrigel Invasion chambers in 24-well plate (Catalog: 354480, BD Biosc.). 750 μL medium (with 20% FBS) was added into lower chamber of each well (DMEM for VCaP, RPMI 1640 for C4-2B and DU145). Next, 5×10^5 VCaP or 5×10^5 C4-2B or 1×10^4DU145 cells in 500 μL medium (with 0.5% FBS) were seeded into the upper chamber of each well. DMSO vehicle or compounds in DMSO solution were added into upper chamber to reach the designated doses. After 48 hours incubation, the invasive cells attached to the lower surface of the membrane insert were fixed in 10% formalin at room temperature for 30 minutes and stained with 0.05% crystal violet. The number of invasive cells was then counted under a microscope. Invasion experiments were performed in duplicate. ***p<0.0001 when compared with vehicle control.

C4-2B cells = experiment: Matrigel invasion assay, C4-2B; type: cell-based; conditions: 48 hours
Experimental: as §2

mouse STING (mSTING) = biological target: T3, mouse STING (mSTING) (Mus musculus, UniProt Q3TBT3); experiment: mSTING ISRE-luc reporter assay in 293T cells; type: cell-based; conditions: 24 hours
T3 construct: expressed in transfected cells; host or cells: 293T
T3 sequence (Q3TBT3 1-378): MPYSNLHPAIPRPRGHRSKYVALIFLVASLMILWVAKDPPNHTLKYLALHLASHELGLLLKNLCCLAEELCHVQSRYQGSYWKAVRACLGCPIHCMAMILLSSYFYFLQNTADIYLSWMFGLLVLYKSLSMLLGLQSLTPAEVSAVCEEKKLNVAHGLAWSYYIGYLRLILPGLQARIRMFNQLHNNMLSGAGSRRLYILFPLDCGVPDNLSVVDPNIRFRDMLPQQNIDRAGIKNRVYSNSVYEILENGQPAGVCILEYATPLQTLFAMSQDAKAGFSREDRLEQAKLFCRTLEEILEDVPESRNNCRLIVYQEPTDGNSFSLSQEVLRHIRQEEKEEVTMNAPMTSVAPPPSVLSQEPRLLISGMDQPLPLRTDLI
Experimental: ISRE-luc (reporter), pRL-TK (internal control) and mSTING-expressing plasmids were transiently transfected into 293T cells. Cells were exposed to DMSO vehicle control or compounds for 24 hours. Experiments were done in triplicate.

human STING = human STING (Homo sapiens, UniProt Q86WV6); experiment: SPR analysis on amine-coupled human STING; type: binding; conditions: 0-50 μM, 2-fold dilution series
[4] = biological target: T4, recombinant protein of human GATA2 (Homo sapiens, UniProt P23769); experiment: SPR analysis on amine-coupled GATA2; type: binding; conditions: 50 μM each
T4 sequence (P23769 1-480): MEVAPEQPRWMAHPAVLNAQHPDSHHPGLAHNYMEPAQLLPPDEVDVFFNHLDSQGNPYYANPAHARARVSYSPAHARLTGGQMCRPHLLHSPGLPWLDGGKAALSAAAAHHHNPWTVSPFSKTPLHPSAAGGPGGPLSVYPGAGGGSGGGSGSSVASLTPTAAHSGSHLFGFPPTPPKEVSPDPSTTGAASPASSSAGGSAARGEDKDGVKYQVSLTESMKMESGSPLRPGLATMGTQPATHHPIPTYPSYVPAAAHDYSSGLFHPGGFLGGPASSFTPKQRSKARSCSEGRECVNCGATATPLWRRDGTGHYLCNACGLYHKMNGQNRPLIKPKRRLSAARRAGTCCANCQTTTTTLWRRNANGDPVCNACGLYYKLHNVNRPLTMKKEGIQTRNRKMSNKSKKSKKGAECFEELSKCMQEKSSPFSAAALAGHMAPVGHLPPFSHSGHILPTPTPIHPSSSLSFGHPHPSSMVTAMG
Description: In embodiments of the invention, the androgen-bound AR is regressing GATA2 expression and inhibition of AR via castration or use of antiandrogen releases such expression. […] Overexpression of GATA2 confers resistance to antiandrogen bicalutamide (Bic) (FIG. 2.9). Compound 673 is effective against the LNCaP stably transfected with GATA2-expressing plasmid (referred to as LNCaP-GATA2 cells) (FIG. 2.8).

human GATA3 = biological target: T5, human GATA3 (Homo sapiens, UniProt P23771); experiment: GATA3-dependent reporter assay in IHH cells; type: cell-based; conditions: 48 hours
T5 construct: expressed in transfected cells; host or cells: IHH
Experimental: The IHH cells were transiently transfected with empty vector (for the NT) or human GATA3-expressing plasmid as well as pRL-TK (internal control) and GATA-Luc reporter plasmids. Cells were exposed to DMSO vehicle or compounds for 48 hours. Experiments were done in triplicate.

human GATA2 = biological target: T6, human GATA2 (Homo sapiens, UniProt P23769); experiment: GATA2-dependent reporter assay in IHH cells; type: cell-based; conditions: GATA-Luc reporter, 48 h
T6 construct: expressed in transfected cells; host or cells: IHH
T6 sequence (P23769 1-480): T4 sequence (P23769 1-480)
Experimental: K7174 is a known GATA2 inhibitor. The IHH cells were transiently transfected with empty vector (for the NT) or human GATA2-expressing plasmid as well as pRL-TK (internal control) and GATA-Luc reporter plasmids. Cells were exposed to DMSO vehicle or compounds for 48 h. Experiments were in triplicate.

human STING (hSTING) = biological target: T7, human STING (hSTING) (Homo sapiens, UniProt Q86WV6); experiment: hSTING ISRE-luc reporter assay in 293T cells; type: cell-based; conditions: 24 hours
T7 construct: expressed in transfected cells; host or cells: 293T
Experimental: ISRE-luc (reporter), pRL-TK (internal control) and hSTING-expressing plasmids were transiently transfected into 293T cells. Cells were exposed to DMSO vehicle control or compounds for 24 hours. Experiments were done in triplicate.

ETS-2 = biological target: T8, ETS-2 (Homo sapiens, UniProt P15036); experiment: ETS-2 dependent reporter assay in HEK293 cells; type: cell-based; conditions: 48 hours
T8 construct: expressed in transfected cells; host or cells: HEK293
Experimental: as §1
Experiments were done as described above in FIG. 1.1a) except that ERG plasmid was replaced by ETS-2 plasmid.

ESE-1 = biological target: T9, ESE-1 (Homo sapiens, UniProt P78545); experiment: ESE-1 dependent reporter assay in HEK293 cells; type: cell-based; conditions: 48 hours
T9 construct: expressed in transfected cells; host or cells: HEK293
T9 sequence (P78545 1-371): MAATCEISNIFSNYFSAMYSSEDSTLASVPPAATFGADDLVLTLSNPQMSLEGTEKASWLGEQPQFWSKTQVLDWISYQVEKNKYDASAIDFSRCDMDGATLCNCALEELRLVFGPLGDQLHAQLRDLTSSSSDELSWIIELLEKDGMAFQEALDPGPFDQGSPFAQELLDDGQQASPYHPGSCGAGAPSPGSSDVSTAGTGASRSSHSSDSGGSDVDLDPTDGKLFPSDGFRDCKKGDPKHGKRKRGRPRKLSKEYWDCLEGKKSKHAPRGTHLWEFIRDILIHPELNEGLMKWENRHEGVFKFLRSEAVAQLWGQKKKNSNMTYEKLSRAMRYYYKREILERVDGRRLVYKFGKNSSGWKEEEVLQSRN
Experimental: as §1
Experiments were done as described above in FIG. 1.1a) except that ERG plasmid was replaced by ESE-1 plasmid.

[5] = test system: LNCaP-pcDNA and LNCaP-GATA2 cells; experiment: MTT assay in LNCaP-pcDNA and LNCaP-GATA2 cells; type: cell-based; conditions: 72 hours
Experimental: Cells were exposed to DMSO vehicle or compounds for 72 hours. Vial cells were evaluated by MTT assays. Experiments were done in triplicate.

human STING, sequence (Q86WV6 whole entry H232R): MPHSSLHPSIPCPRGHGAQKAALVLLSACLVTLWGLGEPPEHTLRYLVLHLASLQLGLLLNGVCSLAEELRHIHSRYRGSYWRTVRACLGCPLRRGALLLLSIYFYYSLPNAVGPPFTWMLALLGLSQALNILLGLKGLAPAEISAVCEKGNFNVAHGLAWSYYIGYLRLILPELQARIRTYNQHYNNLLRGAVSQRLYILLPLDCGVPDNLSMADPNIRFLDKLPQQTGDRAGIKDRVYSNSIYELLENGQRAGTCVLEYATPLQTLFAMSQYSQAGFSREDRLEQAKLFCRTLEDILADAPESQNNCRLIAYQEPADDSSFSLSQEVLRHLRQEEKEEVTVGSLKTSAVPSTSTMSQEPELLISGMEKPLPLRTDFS
T5 sequence (P23771 whole entry): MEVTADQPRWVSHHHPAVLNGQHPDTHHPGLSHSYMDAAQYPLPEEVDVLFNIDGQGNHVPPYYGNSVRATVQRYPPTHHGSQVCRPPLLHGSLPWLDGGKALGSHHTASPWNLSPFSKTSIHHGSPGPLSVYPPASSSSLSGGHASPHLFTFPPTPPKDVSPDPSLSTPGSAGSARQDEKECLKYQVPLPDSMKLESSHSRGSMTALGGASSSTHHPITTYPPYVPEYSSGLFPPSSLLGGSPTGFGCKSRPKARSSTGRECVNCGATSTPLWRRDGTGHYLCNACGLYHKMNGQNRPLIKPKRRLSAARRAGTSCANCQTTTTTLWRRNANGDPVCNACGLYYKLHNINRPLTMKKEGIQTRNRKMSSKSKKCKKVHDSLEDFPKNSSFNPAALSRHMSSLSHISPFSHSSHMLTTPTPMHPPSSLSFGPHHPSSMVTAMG
T7 sequence (Q86WV6 whole entry H232R): as the sequence (Q86WV6 whole entry H232R) above
T8 sequence (P15036 whole entry, species assumed): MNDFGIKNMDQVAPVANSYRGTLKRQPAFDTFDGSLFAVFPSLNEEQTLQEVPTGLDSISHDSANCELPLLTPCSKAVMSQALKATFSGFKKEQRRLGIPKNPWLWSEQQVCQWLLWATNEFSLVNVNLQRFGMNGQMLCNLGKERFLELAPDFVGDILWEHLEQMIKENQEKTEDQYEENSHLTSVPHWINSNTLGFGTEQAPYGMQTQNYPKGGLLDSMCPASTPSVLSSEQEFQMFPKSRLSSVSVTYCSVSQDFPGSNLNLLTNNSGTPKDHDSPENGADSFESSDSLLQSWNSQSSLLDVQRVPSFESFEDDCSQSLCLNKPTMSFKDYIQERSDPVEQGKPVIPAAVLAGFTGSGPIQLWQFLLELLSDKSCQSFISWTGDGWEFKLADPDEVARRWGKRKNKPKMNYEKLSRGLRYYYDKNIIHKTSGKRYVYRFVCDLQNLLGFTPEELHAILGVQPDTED

direct binding with human ERG protein (SPR) (ERG [1]; 50 μM injection, amine-coupled ERG): direct binding
KD for ERG, steady-state affinity model (SPR) (ERG [1]; titrated at 0-50 μM, preliminary data): low micromolar
ETV1 inhibition in ETV1-dependent reporter assay (ETV1): ETV1 inhibitors
Compound: Oc1cccc(-c2nc(Cc3c[nH]c4ccccc34)oc2-c2cccc(O)c2)c1 [Compound 648]
ERG inhibition in ERG-dependent reporter assay (ERG [2]): potent inhibitor of ERG; also recorded: ERG inhibitors
inhibition of expression of EZH2, c-Myc and ERG [3]: inhibit expression of EZH2, c-Myc and ERG
inhibition of invasion of VCaP cells (VCaP cells): potently inhibits invasion
inhibition of invasion of C4-2B cells (C4-2B cells): potently inhibits invasion

activation of mSTING in ISRE-luc reporter assay (mouse STING (mSTING)): activate mouse STING (mSTING)
activity against GATA3 in GATA3-dependent reporter assay (human GATA3; 10 μM): inactive against GATA3
activity against GATA3 in GATA3-dependent reporter assay (human GATA3; compounds at 5 μM): inactive against GATA3
GATA2 inhibition in GATA2-dependent reporter assay (human GATA2): GATA2 inhibitors
activation of hSTING in ISRE-luc reporter assay (human STING (hSTING)): activate hSTING
Compound: c1coc(-c2nc(CCCc3c[nH]c4ccccc34)[nH]c2-c2ccco2)c1 [Compound 817]
binding to amine-coupled human STING (SPR) (human STING): Specific, dose-dependent binding; also recorded: Direct binding
binding to amine-coupled GATA2 (SPR) [4]: Direct binding; also recorded: Specific binding

ETS-2 inhibition in ETS-2 dependent reporter assay (ETS-2): ETS-2 inhibitor
ESE-1 inhibition in ESE-1 dependent reporter assay (ESE-1): ESE-1 inhibitors
ERG inhibition in ERG-dependent reporter assay (ERG [2]): ERG inhibitors
Compound: N#CC(NC(=O)c1ccccc1)SCc1ccccc1 (stereo not drawn) [Compound V154]

Compound: CC(O)(CS(=O)(=O)c1ccc(F)cc1)C(=O)Nc1ccc(C#N)c(C(F)(F)F)c1 (stereo not drawn) [bicalutamide, reference compound]
cytotoxicity in LNCaP-GATA2 compared with LNCaP-pcDNA cells (MTT) [5]: less active in LNCaP-GATA2 cells
